Laboratory results taken from US5495032A, “Process for producing 7-(substituted)-8-(substituted-9-[(substituted glycyl)amido]-6-demethyl-6-deoxytetracyclines” (priority 1994, dated 1996).
Read-outs that look alike come from different tables or passages of the source.

Columns and labels:
Type in all cases: cell-based
E. coli UBMS 88-1 Tet B = experiment: microbe, parasite or virus in culture; settings: 18 hours at 35° C.
[1] = test system: E. coli MC 4100 Tet sens.; experiment: MIC, agar dilution method; settings: 18 hours at 35° C.
E. coli PRP1 Tet A = experiment: microbe, parasite or virus in culture; settings: 18 hours at 35° C.
[2] = test system: E. coli MC 4100 TNIOC Tet B; experiment: microbe, parasite or virus in culture; settings: 18 hours at 35° C.
E. coli J3272 Tet C = experiment: microbe, parasite or virus in culture
E. coli UBMS 89-1 Tet M = experiment: microbe, parasite or virus in culture; settings: 18 hours at 35° C.
[3] = test system: E. coli UBMS 89-2 Tet sens; experiment: MIC, agar dilution method; settings: 18 hours at 35° C.
E. coli J2175 = experiment: MIC, agar dilution method; settings: 18 hours at 35° C.
E. coli BAJ9003 IMP MUT = experiment: microbe, parasite or virus in culture; settings: 18 hours at 35° C.
E. coli UBMS 90-4 Tet M = experiment: microbe, parasite or virus in culture; settings: 18 hours at 35° C.
E. coli UBMS 90-5 sens = experiment: MIC, agar dilution method; settings: 18 hours at 35° C.
E. coli #311 (MP) = experiment: MIC, agar dilution method; settings: 18 hours at 35° C.
E. coli ATCC 25922 = experiment: MIC, agar dilution method
E. coli J3272 Tet D = experiment: microbe, parasite or virus in culture
S. mariescens FPOR 8733 = experiment: MIC, agar dilution method; settings: 18 hours at 35° C.
[4] = test system: X. maltophilia NEMC 87210; experiment: MIC, agar dilution method; settings: 18 hours at 35° C.
[5] = test system: Ps. acruginosa ATCC 27853; experiment: MIC, agar dilution method; settings: Ps. acruginosa ATCC 27853, 18 hours at 35° C.
S. aureus NEMC 8769 = experiment: MIC, agar dilution method; settings: S. aureus NEMC 8769, 18 hours at 35° C.
S. aureus UBMS 88-4 = experiment: MIC, agar dilution method
[6] = test system: S. aureus UBMS 88-5 Tet M; experiment: microbe, parasite or virus in culture
[7] = test system: S. aureus UBMS 88-7 Tet K; experiment: microbe, parasite or virus in culture; settings: 18 hours at 35° C.
[8] = test system: S. aureus UBMS 90-1 Tet M; experiment: microbe, parasite or virus in culture; settings: 18 hours at 35° C.
S. aureus UBMS 90-3 = experiment: MIC, agar dilution method; settings: S. aureus UBMS 90-3, 18 hours at 35° C.
[9] = test system: S. aureus UBMS 90-2 Tet M; experiment: microbe, parasite or virus in culture; settings: 18 hours at 35° C.
S. aureus IVES 2943 = experiment: MIC, agar dilution method
S. aureus ROSE (MP) = experiment: MIC, agar dilution method; settings: 18 hours at 35° C.
S. aureus SMITH (MP) = experiment: MIC, agar dilution method; settings: 18 hours at 35° C.
S. aureus IVES 1 983 = experiment: MIC, agar dilution method
S. aureus ATCC 29213 = experiment: MIC, agar dilution method; settings: 18 hours at 35° C.
[10] = test system: S. hemolyticus AVHAH 88-3; experiment: MIC, agar dilution method; settings: 18 hours at 35° C.
Enterococcus 12201 = experiment: MIC, agar dilution method; settings: 18 hours at 35° C.
E. faecalis ATCC 29212 = experiment: MIC, agar dilution method
[11] = test system: tetracycline resistant strains containing the tetM resistance determinant; experiment: in vitro antibacterial evaluation, tetM strains; settings: S. aureus UBMS 88-5, 90-1 and 90-2, E. coli UBMS 89-1 and 90-4
susceptible strains = experiment: in vitro antibacterial evaluation, susceptible strains; settings: vs minocycline
E. coli J3272 Tet sens = experiment: MIC, agar dilution method; settings: Escherichia coli, J3272TETSENS, 18 hours at 35° C.
[12] = Escherichia coli, read-out: MIC

With `CN(C)C1C(O)=C(C(N)=O)C(=O)C2(O)C(O)=C3C(=O)c4c(cc(Cl)c(NC(=O)CNCC5CC5)c4O)CC3CC12.Cl.Cl` (stereo not drawn) [G, [4S-(4α,12aα)]-8-Chloro-9-[[(cyclopropylmethylamino)acetyl]amino]-4-(dimethylamino)-1,4,4a,5,5a,6,11,12a-octahydro-3,10,12,12a-tetrahydroxy-1,11-dioxo-2-naphthacenecarboxamide dihydrochloride] the MIC (E. coli UBMS 88-1 Tet B) was 1 µg/mL, the MIC [1] was 0.25 µg/mL and the MIC (E. coli PRP1 Tet A) was 4 µg/mL. The MIC [2] was 1 µg/mL, the MIC (E. coli J3272 Tet C; E. coli J3272 Tet C, 18 hours at 35° C.) was 1 µg/mL and the MIC (E. coli UBMS 89-1 Tet M) was 0.5 µg/mL. For the same molecule, the MIC [3] was 1 µg/mL, the MIC (E. coli J2175) was 1 µg/mL and the MIC (E. coli BAJ9003 IMP MUT) was 0.12 µg/mL. For the same molecule, the MIC (E. coli UBMS 90-4 Tet M) was 1 µg/mL, the MIC (E. coli UBMS 90-5 sens) was 1 µg/mL and the MIC (E. coli #311 (MP)) was 1 µg/mL. The MIC (E. coli ATCC 25922; 18 hours at 35° C.) was 1 µg/mL, the MIC (E. coli J3272 Tet D; E. coli J3272 Tet D, 18 hours at 35° C.) was 1 µg/mL and the MIC (S. mariescens FPOR 8733) was 8 µg/mL. For the same molecule, the MIC [4] was 4 µg/mL, the MIC [5] was 32 µg/mL and the MIC (S. aureus NEMC 8769) was 0.5 µg/mL. It also gave an MIC (S. aureus UBMS 88-4; 18 hours at 35° C.) of 0.5 µg/mL, an MIC ([6]; S. aureus UBMS 88-5 Tet M, 18 hours at 35° C.) of 0.5 µg/mL and an MIC [7] of 8 µg/mL. For the same molecule, the MIC [8] was 2 µg/mL, the MIC (S. aureus UBMS 90-3) was 0.12 µg/mL and the MIC [9] was 0.5 µg/mL. For the same molecule, the MIC (S. aureus IVES 2943; S. aureus IVES 2943, 18 hours at 35° C.) was 16 µg/mL, the MIC (S. aureus ROSE (MP)) was 32 µg/mL and the MIC (S. aureus SMITH (MP)) was 0.5 µg/mL. The MIC (S. aureus IVES 1 983; S. aureus IVES 1 983, 18 hours at 35° C.) was 16 µg/mL, the MIC (S. aureus ATCC 29213) was 0.25 µg/mL and the MIC [10] was 8 µg/mL. For the same molecule, the MIC (Enterococcus 12201) was 0.25 µg/mL and the MIC (E. faecalis ATCC 29212; 18 hours at 35° C.) was 0.25 µg/mL.
With `CN(C)CC(=O)Nc1c(Cl)cc2c(c1O)C(=O)C1=C(O)[C@]3(O)C(=O)C(C(N)=O)=C(O)[C@@H](N(C)C)C3CC1C2` (stereo partly drawn) [8-chloro-9-(N,N-dimethylglycylamido)-6-demethyl-6-deoxytetracycline] the “in vitro activity against tetracycline resistant strains containing the tetM resistance determinant” value [11] was “good in vitro activity” and the “effectiveness against susceptible strains compared with minocycline” value (susceptible strains) was “equally as effective as minocycline”.
With `CN(C)CC(=O)Nc1c(Cl)cc2c(c1O)C(=O)C1=C(O)[C@]3(O)C(=O)C(C(N)=O)=C(O)[C@@H](N(C)C)C3CC1C2` (stereo partly drawn) [A, [4S-(4α,12aα)]-8-Chloro-4-(dimethylamino)-9-[[(dimethylamino)acetyl]amino]-1,4,4a,5,5a,6,11,12a-octahydro-3,10,12,12a-tetrahydroxy-1,11-dioxo-2-naphthacenecarboxamide disulfate] the MIC (E. coli UBMS 88-1 Tet B; Escherichia coli, UBMS881TETB, 18 h) was 2 µg/mL, the MIC (E. coli J3272 Tet sens) was 1 µg/mL and the MIC (E. coli PRP1 Tet A; Escherichia coli, PRP1TETA, 18 h) was 4 µg/mL. The MIC ([2]; Escherichia coli, 18 h) was 2 µg/mL, the MIC (E. coli J3272 Tet C; Escherichia coli, J3272TETC, 18 h) was 8 µg/mL and the MIC (E. coli UBMS 89-1 Tet M; Escherichia coli, UBMS891TETM, 18 h) was 0.5 µg/mL. It also gave an MIC ([3]; Escherichia coli, UBMS892TETSENS, 18 h, read-out: MIC) of 2 µg/mL, an MIC (E. coli J2175; [12]) of 1 µg/mL and an MIC (E. coli BAJ9003 IMP MUT) of 0.25 µg/mL. For the same molecule, the MIC (E. coli UBMS 90-4 Tet M; Escherichia coli, UBMS904TETM, 18 h) was 1 µg/mL, the MIC (E. coli UBMS 90-5 sens; Escherichia coli, UBMS905SENS, read-out: MIC) was 1 µg/mL and the MIC (E. coli #311 (MP); [12]) was 0.5 µg/mL. The MIC (E. coli ATCC 25922; Escherichia coli, ATCC25922, 18 hours at 35° C., read-out: MIC) was 0.5 µg/mL, the MIC (E. coli J3272 Tet D; Escherichia coli, J3272TETD, 18 h) was 0.5 µg/mL and the MIC (S. mariescens FPOR 8733; 18 h) was 16 µg/mL. It also gave an MIC ([4]; Stenotrophomonas maltophilia, NEMC87210, 18 h) of 2 µg/mL, an MIC ([5]; read-out: MIC) greater than 32 µg/mL and an MIC (S. aureus NEMC 8769; Staphylococcus aureus, NEMC8769, 18 h) of 0.06 µg/mL. It also gave an MIC (S. aureus UBMS 88-4; Staphylococcus aureus, UBMS884, 18 hours at 35° C., read-out: MIC) of 0.12 µg/mL, an MIC ([6]; Staphylococcus aureus, UBMS885TETM, 18 h) of 0.25 µg/mL and an MIC [7] of 2 µg/mL. It also gave an MIC [8] of 0.5 µg/mL, an MIC (S. aureus UBMS 90-3; Staphylococcus aureus, UBMS903, read-out: MIC) of 0.12 µg/mL and an MIC ([9]; Staphylococcus aureus, UBMS902TETM, 18 h) of 0.5 µg/mL. It also gave an MIC (S. aureus IVES 2943; Staphylococcus aureus, IVES2943, 18 h) of 4 µg/mL, an MIC (S. aureus ROSE (MP)) of 16 µg/mL and an MIC (S. aureus SMITH (MP)) of 0.25 µg/mL. For the same molecule, the MIC (S. aureus IVES 1 983; Staphylococcus aureus, IVES1983, 18 h) was 4 µg/mL, the MIC (S. aureus ATCC 29213) was 0.03 µg/mL and the MIC ([10]; Streptococcus pyogenes, AVHAH883, 18 h) was 1 µg/mL. It also gave an MIC (Enterococcus 12201) of 0.25 µg/mL and an MIC (E. faecalis ATCC 29212; Enterococcus faecalis, ATCC29212, 18 hours at 35° C., read-out: MIC) of 0.12 µg/mL.
